Experiments:
ABL1-Y253F = ABL1-Y253F (Homo sapiens, UniProt P00519, Y253F); experiment: SelectScreen kinase profiling, ABL1-Y253F; assay type: biochemical; conditions: mean ± SD of one measurement in duplicates
Method: (§1) Kinase profiling of compound 17a at a concentration of 1 µM generated with the SelectScreen® Profiling Service from Life Technologies.
(§2) Figure S2. Kinase profiling of compound 17a, Illustration as waterfall plot. 9 Kinases harboring a Cysteine isostructural to Cys797 in EGFR are highlighted
(§3) Kinase % inhibition Kinase % inhibition […]
(§4) aValues are the mean ± SD of one measurement in duplicates; bKinases harboring a Cysteine isostructural to Cys797 […]
(§5) (1 picture or pasted object on this page, not shown here)

EPHB2 = EPHB2 (Homo sapiens, UniProt P29323); experiment: SelectScreen kinase profiling, EPHB2; assay type: biochemical; conditions: mean ± SD of one measurement in duplicates
Chain of EPHB2 (P29323 19-1055): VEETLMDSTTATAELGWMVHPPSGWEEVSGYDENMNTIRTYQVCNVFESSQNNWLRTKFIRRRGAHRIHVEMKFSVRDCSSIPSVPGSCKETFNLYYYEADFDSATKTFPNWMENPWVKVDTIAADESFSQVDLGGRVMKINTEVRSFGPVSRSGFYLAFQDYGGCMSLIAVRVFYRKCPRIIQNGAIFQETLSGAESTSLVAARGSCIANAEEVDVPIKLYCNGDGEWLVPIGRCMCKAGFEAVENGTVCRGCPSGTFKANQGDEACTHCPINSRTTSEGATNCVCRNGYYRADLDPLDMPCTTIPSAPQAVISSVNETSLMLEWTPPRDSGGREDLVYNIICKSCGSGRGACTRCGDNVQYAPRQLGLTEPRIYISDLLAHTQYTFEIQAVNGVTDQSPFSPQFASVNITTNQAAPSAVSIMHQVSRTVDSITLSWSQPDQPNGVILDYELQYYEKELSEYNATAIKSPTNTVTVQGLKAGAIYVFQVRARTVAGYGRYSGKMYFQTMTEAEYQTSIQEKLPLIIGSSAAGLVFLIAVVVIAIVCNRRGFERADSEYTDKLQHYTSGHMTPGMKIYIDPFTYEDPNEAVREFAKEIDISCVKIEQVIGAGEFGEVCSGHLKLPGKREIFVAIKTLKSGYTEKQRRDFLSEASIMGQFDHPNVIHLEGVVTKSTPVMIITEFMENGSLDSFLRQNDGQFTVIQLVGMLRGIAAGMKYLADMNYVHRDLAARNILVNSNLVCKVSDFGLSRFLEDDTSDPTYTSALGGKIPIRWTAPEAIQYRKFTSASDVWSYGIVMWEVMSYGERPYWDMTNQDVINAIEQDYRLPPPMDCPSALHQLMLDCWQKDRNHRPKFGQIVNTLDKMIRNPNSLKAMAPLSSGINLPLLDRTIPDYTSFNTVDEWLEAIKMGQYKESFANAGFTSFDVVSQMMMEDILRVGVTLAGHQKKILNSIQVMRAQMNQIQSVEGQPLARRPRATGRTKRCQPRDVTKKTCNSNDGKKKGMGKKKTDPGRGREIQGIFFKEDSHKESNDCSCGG
Method: as §1, §2, §3, §4, §5

EGFR-L858R [1] = biological target: T1, EGFR-L858R (Homo sapiens, UniProt P00533, L858R); experiment: SelectScreen kinase profiling, EGFR-L858R; assay type: biochemical; conditions: mean ± SD of one measurement in duplicates
T1 sequence (P00533 25-1210 L858R): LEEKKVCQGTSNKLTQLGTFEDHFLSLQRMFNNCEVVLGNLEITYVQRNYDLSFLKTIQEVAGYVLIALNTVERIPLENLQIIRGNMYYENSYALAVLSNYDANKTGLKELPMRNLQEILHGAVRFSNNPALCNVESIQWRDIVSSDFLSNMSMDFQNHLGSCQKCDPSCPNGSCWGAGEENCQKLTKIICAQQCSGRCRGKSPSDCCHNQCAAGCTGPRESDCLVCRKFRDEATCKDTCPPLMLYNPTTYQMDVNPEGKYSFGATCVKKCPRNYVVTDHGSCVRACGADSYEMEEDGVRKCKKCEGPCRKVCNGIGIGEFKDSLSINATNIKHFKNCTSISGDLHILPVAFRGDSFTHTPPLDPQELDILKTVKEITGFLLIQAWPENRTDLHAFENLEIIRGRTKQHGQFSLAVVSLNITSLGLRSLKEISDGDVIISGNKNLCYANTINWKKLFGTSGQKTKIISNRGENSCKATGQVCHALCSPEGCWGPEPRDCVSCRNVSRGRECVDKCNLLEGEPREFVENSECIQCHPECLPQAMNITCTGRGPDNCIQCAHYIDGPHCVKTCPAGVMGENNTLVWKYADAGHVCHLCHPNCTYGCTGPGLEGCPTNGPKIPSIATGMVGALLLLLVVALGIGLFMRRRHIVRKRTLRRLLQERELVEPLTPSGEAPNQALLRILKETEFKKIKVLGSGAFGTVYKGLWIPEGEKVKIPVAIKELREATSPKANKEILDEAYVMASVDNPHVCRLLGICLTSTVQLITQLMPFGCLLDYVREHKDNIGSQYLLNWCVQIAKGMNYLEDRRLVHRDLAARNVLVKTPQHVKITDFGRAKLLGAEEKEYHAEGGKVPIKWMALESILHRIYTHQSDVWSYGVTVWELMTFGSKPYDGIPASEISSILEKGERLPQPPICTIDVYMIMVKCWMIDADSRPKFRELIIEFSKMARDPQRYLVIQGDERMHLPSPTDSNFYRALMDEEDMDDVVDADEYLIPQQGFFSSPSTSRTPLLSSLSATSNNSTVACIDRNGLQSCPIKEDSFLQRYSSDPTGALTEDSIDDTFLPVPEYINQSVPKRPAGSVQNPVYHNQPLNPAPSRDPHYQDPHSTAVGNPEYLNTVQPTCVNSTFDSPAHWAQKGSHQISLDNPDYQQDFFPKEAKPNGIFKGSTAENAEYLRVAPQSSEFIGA
Method: as §1, §2, §3, §4, §5

ABL2 = ABL2 (Homo sapiens, UniProt P42684); experiment: SelectScreen kinase profiling, ABL2; assay type: biochemical; conditions: mean ± SD of one measurement in duplicates
Chain of ABL2 (P42684 whole entry): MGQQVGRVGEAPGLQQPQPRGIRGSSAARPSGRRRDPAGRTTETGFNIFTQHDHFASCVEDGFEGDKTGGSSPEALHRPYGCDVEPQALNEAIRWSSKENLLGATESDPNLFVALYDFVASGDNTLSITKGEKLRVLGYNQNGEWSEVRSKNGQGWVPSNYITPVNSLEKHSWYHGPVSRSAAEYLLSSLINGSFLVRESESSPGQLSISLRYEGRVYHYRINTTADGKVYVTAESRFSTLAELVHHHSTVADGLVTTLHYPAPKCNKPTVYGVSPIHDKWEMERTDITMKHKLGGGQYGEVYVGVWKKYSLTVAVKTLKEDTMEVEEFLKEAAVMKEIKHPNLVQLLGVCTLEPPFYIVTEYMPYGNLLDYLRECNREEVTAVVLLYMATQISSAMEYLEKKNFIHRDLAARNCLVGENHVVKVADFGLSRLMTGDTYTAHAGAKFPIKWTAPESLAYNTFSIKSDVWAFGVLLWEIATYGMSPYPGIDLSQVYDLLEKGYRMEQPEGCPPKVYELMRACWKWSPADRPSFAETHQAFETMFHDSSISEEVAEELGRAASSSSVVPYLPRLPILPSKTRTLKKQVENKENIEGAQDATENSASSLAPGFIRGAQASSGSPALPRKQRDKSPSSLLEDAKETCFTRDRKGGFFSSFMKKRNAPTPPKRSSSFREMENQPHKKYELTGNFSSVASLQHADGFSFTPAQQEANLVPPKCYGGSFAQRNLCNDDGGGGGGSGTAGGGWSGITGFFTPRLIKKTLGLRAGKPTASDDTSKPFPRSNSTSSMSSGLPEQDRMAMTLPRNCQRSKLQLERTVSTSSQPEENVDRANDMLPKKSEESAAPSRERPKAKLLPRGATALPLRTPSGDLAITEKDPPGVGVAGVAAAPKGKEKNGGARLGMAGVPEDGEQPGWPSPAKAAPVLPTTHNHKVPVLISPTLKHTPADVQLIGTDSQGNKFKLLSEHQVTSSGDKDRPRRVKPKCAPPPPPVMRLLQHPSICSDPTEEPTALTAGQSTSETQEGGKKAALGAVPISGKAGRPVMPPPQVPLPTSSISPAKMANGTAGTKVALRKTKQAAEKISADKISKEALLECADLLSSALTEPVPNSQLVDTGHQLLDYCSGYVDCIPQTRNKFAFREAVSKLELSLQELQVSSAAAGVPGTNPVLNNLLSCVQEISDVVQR
Method: as §1, §2, §3, §4, §5

ACVR1B = ACVR1B (Homo sapiens, UniProt P36896); experiment: SelectScreen kinase profiling, ACVR1B; assay type: biochemical; conditions: mean ± SD of one measurement in duplicates
Chain of ACVR1B (P36896 24-505): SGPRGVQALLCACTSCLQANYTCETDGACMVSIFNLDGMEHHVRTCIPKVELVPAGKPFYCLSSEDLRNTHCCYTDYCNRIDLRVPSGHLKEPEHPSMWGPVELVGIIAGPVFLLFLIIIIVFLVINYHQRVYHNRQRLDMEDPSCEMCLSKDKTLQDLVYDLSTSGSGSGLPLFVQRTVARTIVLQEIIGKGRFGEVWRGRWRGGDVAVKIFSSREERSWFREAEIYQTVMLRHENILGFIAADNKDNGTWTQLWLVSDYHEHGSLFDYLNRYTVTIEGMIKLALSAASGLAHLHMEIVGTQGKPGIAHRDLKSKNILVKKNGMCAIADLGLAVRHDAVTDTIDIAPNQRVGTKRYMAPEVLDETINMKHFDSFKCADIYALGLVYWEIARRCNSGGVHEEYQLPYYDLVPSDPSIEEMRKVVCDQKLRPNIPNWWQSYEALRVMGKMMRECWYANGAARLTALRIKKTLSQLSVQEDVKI
Method: as §1, §2, §3, §4, §5

Her2 = Her2 (Homo sapiens, UniProt P04626); experiment: SelectScreen kinase profiling, Her2; assay type: biochemical; conditions: mean ± SD of one measurement in duplicates
Method: as §1, §2, §3, §4, §5

[2] = test system: EGFR and downstream cascade phosphorylation in H1975 cells; experiment: Western blot analysis in H1975 cells; assay type: cell-based; conditions: 1 h inhibitor then EGF stimulation
Method: and incubated at 37 °C and 5% CO2. On day 2 cells were starved over night with media containing 0.5% FBS to be incubated on day 3 for 1 h with EGFR inhibitors following an additional 30 min of EGF stimulation at 50 ng/mL. The media was discarded and cells were washed once with DPBS
1x. Using 100 μL per well of lysis buffer, cells were then scraped off and lysed while rotating (Stuart Scientific, Staffordshire, UK) for 1 h at 4 °C. […] Supernatant was transferred into new tube and protein concentrations were determined with the Bio-Rad Protein Assay (Bio-Rad Laboratories, Hercules, CA). […]
captured and quantified using a FUJI LAS3000 system with Science Lab 2001 ImageGauge 4.0 software (Fujifilm Medial Systems, Stamford CT, USA). […]
glycerol, 1 mM TCEP, pH 8) on ice for 1 h. We analyzed the aliquots by ESI-MS using an Thermo Fisher Scientific Dionex UltiMate 3000 HPLC system connected to a Thermo Fisher Scientific Velos Pro (2d ion trap). Therefore, 5 μL of sample was injected and separated using a Vydac 214TP C4 5 μm column (150 mm x 2.1 mm) starting at 20% of solvent B for 5 minutes followed by a gradient up to 90% of solvent B over 14 min with a flow rate of 210 μL/min with 0.1% TFA in water as solvent A and 0.1% TFA in MeCN as solvent B. A mass range of 700 to 2000 m/z was scanned and raw data was deconvoluted and analyzed with MagTran software (Z.Q. Zhang, A.G. […]

ABL1-E255K = ABL1-E255K (Homo sapiens, UniProt P00519, E255K); experiment: SelectScreen kinase profiling, ABL1-E255K; assay type: biochemical; conditions: mean ± SD of one measurement in duplicates
Method: as §1, §2, §3, §4, §5

EGFR-T790M/L858R = EGFR-T790M/L858R (Homo sapiens, UniProt P00533, L858R/T790M); experiment: SelectScreen kinase profiling, EGFR-T790M/L858R; assay type: biochemical; conditions: mean ± SD of one measurement in duplicates
Chain of EGFR-T790M/L858R (P00533 25-1210 T790M/L858R): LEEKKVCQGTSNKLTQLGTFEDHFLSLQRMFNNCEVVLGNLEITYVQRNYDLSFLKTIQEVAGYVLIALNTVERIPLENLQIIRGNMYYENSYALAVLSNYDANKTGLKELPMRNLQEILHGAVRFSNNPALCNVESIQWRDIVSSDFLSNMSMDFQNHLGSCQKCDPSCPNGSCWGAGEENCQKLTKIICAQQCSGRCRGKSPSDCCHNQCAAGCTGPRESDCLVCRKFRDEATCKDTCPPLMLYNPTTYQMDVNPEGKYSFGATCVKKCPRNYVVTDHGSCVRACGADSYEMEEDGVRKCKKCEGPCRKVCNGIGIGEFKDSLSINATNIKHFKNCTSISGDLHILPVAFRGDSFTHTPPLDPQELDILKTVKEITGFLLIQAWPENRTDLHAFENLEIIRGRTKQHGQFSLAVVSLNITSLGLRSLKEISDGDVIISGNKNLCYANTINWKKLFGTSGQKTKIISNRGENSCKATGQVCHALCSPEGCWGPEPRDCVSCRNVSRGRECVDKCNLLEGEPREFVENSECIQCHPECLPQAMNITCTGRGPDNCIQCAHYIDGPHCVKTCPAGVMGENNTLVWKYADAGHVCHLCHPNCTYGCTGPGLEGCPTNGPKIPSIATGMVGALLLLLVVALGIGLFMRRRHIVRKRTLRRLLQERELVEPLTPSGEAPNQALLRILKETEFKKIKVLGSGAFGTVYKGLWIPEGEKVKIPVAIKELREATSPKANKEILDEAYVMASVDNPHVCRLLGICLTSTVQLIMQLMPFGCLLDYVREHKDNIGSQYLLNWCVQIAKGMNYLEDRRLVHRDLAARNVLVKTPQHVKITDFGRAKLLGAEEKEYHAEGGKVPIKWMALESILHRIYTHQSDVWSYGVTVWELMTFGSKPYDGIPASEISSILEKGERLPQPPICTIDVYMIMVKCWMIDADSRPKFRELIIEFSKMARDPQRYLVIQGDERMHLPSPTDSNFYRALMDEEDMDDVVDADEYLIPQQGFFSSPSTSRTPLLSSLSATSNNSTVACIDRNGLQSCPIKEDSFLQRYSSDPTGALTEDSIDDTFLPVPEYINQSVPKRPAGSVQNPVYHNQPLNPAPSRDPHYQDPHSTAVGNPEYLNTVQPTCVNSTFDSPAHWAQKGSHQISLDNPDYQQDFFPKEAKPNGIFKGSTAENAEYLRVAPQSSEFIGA
Method: as §1, §2, §3, §4, §5

100 kinases = experiment: Kinase selectivity profiling with 100 kinases (SelectScreen); assay type: biochemical; conditions: screening concentration 1 μM
Method: as §1, §2, §3, §4, §5

ITK = ITK (Homo sapiens, UniProt Q08881); experiment: SelectScreen kinase profiling, ITK; assay type: biochemical; conditions: mean ± SD of one measurement in duplicates
Method: as §1, §2, §3, §4, §5

[3] = Microsomal stability (phase I), human; assay type: in vitro ADME; conditions: human liver microsomes, up to 50 minutes, 37 °C
Method: Microsomal stability (phase I) assay.
Metabolic stability under oxidative conditions was measured in liver microsomes from different
time up to 50 minutes (HLM) or 60 minutes (MLM) at 37 °C. Based on the compound half-life t1/2,
the in vitro intrinsic clearance CLint was calculated. […]

[4] = Plasma protein binding, mouse; assay type: in vitro ADME; conditions: equilibrium dialysis, 37 °C
Method: Assessment of plasma protein binding was measured by equilibrium dialysis by incubating plasma
based determination of final compound concentrations. […]

EGFR-L858R [5] = biological target: T1, EGFR-L858R; experiment: Kinetic characterization (Ki, kinact), EGFR-L858R

| SMILES | inhibition at 1 µM (ABL1-Y253F) | inhibition at 1 µM (EPHB2) | inhibition at 1 µM (EGFR-L858R [1]) | inhibition at 1 µM (ABL2) | inhibition at 1 µM (ACVR1B) | inhibition at 1 µM (Her2) | concentration at which phosphorylation of EGFR and downstream proteins was reduced/inhibited [2] | inhibition at 1 µM (ABL1-E255K) | inhibition at 1 µM (EGFR-T790M/L858R) | kinases with inhibitory activity of ≥70% (100 kinases) | inhibition at 1 µM (ITK) | microsomal CLint at 3 µM [3] | fraction unbound at 6 h, 5 µM [4] | Ki (EGFR-L858R [5]) | kinact (EGFR-L858R [5]) | kinact/KI (EGFR-L858R [5]) |
| --- | --- | --- | --- | --- | --- | --- | --- | --- | --- | --- | --- | --- | --- | --- | --- | --- |
| C=CC(=O)Nc1cccc(-c2c(-c3ccc(CN4CCN(C)CC4)cc3)[nH]c3ncnc(OC)c23)c1 [Compound 17a] | 94% | 72 ± 3% | 89 ± 6% | 86% | 89% | 82 ± 6% | around 100 nM | 86% | 88 ± 1% | 21 kinases and 8 mutant variants | 70 ± 2% |  |  |  |  |  |
| C=CC(=O)Nc1cccc(-c2c(-c3ccc(N4CCN(C)CC4)cc3)[nH]c3ncnc(OCC(C)C)c23)c1 [Compound 19h] |  |  |  |  |  |  |  |  |  |  |  | 6.7 µL/min/mg | 0.003 | 0.5 ± 0.1 nM | 0.00467 s⁻¹ | 8.78e+06 ± 650000 M⁻¹ s⁻¹ |
